Results published in patent publication US8791132B2, “Compounds and methods for treatment of hypertension” (Medivation Technologies, Inc., priority 2011, dated 2014).
Read-outs that look alike come from different tables or passages of the source.

Assays:
[1] = target: T1, human recombinant adrenergic α2B receptor (Homo sapiens, UniProt P18089); assay: Radioligand binding, adrenergic α2B ([3H]Rauwolscine); conditions: for Percentage inhibition of ligand binding, Adrenergic α2B / Percentage inhibition of ligand binding, Adrenergic α2B (0.03 μM): 0.03 µM
T1 construct: expressed in transfected cells; host or cells: CHO-K1
T1 sequence (P18089 1-450): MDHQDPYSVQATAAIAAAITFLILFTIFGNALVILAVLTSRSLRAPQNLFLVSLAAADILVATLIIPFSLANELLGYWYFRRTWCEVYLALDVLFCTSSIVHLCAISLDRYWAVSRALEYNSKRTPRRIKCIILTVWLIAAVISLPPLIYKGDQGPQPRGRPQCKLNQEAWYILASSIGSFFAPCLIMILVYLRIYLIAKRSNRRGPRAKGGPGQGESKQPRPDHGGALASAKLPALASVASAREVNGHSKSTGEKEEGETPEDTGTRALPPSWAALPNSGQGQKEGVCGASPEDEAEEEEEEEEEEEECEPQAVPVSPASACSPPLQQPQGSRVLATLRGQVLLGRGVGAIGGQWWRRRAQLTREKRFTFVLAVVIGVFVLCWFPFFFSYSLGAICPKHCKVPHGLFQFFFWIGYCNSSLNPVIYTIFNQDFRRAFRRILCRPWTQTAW
In short: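 Receptor expressed in CHO-K1 cells, assayed in 50 mM Tris-HCl pH 7.4 with 12.5 mM MgCl2, 1 mM EDTA and 0.2% BSA. Compounds were incubated with 2.5 nM [3H]Rauwolscine for 60 min at 25° C; 10 μM Prazosin defined non-specific binding. Filter counting gave percent inhibition of specific binding.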

[2] = target: T2, human recombinant adrenergic α2A receptor (Homo sapiens, UniProt P08913); assay: Radioligand binding, adrenergic α2A ([3H]MK-912); conditions: for Percentage inhibition of ligand binding, Adrenergic α2A / Percentage inhibition of ligand binding, Adrenergic α2A (0.1 μM): 0.1 µM
T2 construct: expressed in transfected cells; host or cells: insect Sf9 cells
T2 sequence (P08913 1-465): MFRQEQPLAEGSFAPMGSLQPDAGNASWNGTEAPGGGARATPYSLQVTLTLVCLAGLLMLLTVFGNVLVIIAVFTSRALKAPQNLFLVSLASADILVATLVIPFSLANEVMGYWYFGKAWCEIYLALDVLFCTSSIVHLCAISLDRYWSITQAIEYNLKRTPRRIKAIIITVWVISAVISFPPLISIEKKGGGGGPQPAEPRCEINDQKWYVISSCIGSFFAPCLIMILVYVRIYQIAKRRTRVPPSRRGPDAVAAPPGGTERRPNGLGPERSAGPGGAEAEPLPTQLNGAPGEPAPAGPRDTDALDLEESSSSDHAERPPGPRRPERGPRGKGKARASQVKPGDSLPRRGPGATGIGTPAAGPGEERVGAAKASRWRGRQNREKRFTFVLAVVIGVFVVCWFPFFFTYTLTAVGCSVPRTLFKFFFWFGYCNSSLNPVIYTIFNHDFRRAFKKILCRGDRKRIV
In short: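 Sf9-expressed receptor was incubated with compound for 60 min at 25 °C in modified Tris-HCl buffer, pH 7.4. Nonspecific binding was taken as that remaining with 10 μM WB-4101.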

[3] = target: T3, rat adrenergic α1B receptor (Rattus norvegicus, UniProt P15823); assay: Radioligand binding, adrenergic α1B ([3H]Prazosin); conditions: for Percentage inhibition of ligand binding, Adrenergic α1B (0.1 μM) / Percentage inhibition of ligand binding, Adrenergic α1B: 0.1 µM
T3 construct: rat adrenergic α1B receptor obtained from Wistar Rat liver; from tissue; host or cells: Wistar rat liver
T3 sequence (P15823 1-515): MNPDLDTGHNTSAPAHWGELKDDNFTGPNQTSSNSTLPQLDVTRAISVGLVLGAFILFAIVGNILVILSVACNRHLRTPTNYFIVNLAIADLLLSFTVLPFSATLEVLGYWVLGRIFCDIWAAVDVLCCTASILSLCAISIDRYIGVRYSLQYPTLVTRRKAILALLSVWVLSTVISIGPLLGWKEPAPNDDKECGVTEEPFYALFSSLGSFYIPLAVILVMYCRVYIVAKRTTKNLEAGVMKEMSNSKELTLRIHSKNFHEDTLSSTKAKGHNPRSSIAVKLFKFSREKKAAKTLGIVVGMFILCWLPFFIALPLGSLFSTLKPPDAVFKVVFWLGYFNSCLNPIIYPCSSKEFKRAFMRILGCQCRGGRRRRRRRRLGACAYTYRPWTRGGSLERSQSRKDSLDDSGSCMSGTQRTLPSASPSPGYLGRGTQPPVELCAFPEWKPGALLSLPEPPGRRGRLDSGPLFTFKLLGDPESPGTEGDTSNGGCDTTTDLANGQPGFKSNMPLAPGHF
In short: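 Filter binding with Wistar rat liver α1B preparation: test compound plus 0.25 nM [3H]prazosin, 1 h at 25° C in modified Tris-HCl buffer pH 7.4.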

[4] = compound at 0.03 μM, [3H]Rauwolscine, repeat assays, each datapoint shown, read-out: Percentage inhibition of ligand binding, Adrenergic α2B
[5] = compound at 0.1 μM, [3H]MK-912, repeat assays, each datapoint shown, read-out: Percentage inhibition of ligand binding, Adrenergic α2A
[6] = compound at 0.1 μM, [3H]Prazosin, repeat assays, each datapoint shown, read-out: Percentage inhibition of ligand binding, Adrenergic α1B
[7] = read-out: Percentage inhibition of ligand binding, Adrenergic α2B (0.03 μM), compound at 0.03 μM, [3H]Rauwolscine, repeat datapoints each shown
[8] = read-out: Percentage inhibition of ligand binding, Adrenergic α2A (0.1 μM), compound at 0.1 μM, [3H]MK-912, repeat datapoints each shown
[9] = read-out: Percentage inhibition of ligand binding, Adrenergic α1B (0.1 μM), compound at 0.1 μM, [3H]Prazosin, repeat datapoints each shown
[10] = compound at 0.1 μM, [3H]Prazosin, repeat datapoints each shown
[11] = compound at 0.03 μM, [3H]Rauwolscine, repeat assays, each datapoint shown
[12] = compound at 0.1 μM, [3H]MK-912, repeat assays, each datapoint shown
[13] = compound at 0.1 μM, [3H]Prazosin, repeat assays, each datapoint shown
[14] = compound at 0.03 μM, [3H]Rauwolscine, repeat datapoints each shown
[15] = compound at 0.1 μM, [3H]MK-912, repeat datapoints each shown
[16] = 0.03 μM compound, read-out: Percentage inhibition of ligand binding, Adrenergic α2B
[17] = 0.1 μM compound, read-out: Percentage inhibition of ligand binding, Adrenergic α2A
[18] = 0.1 μM compound, read-out: Percentage inhibition of ligand binding, Adrenergic α1B

COc1ccc(C(O)Cn2c3c(c4cc(C)ccc42)CN(C)CC3)cc1OC (stereo not shown) [compound 66, 1-(3,4-dimethoxy-phenyl)-2-(2,8-dimethyl-1,2,3,4-tetrahydro-pyrido[4,3-b]indol-5-yl)-ethanol]
inhibition at 0.03 µM [1, 4]: 69% | inhibition at 0.1 µM [2, 5]: 15% | inhibition at 0.1 µM [3, 6]: 48%

Cc1ccc(CCn2c3c(c4c(F)ccc(F)c42)CN(C)CC3)cn1 [II-250]
inhibition at 0.03 µM [1, 7]: 6% | inhibition at 0.1 µM [2, 8]: 57% | inhibition at 0.1 µM [3, 9]: -5%

Cc1cnc2c(c1)c1c(n2CC(C)(O)c2ccc(C)nc2)CCN2CCCC12 (single isomer, unassigned) [148b]
Ki ([1]; read-out: Ki α2B): 430 pM | inhibition at 0.03 µM [1, 7]: 105% | inhibition at 0.1 µM ([1]; read-out: Percentage inhibition of ligand binding, Adrenergic α2B (0.1 μM), compound at 0.1 μM, [3H]Rauwolscine, repeat datapoints each shown): 106% | inhibition at 0.1 µM [2, 8]: 37% | Percentage inhibition of ligand binding, Adrenergic α1B (0.1 μM) [3, 10]: 74% | inhibition at 0.03 µM ([3]; read-out: Percentage inhibition of ligand binding, Adrenergic α1B (0.03 μM), compound at 0.03 μM, [3H]Prazosin, repeat datapoints each shown): 35% | inhibition at 0.1 µM [3, 9]: 71%

CC(C)(O)CCN1CCc2c(c3cc(Cl)ccc3n2CC(O)c2ccncc2)C1 (single isomer, unassigned) [11a, 4-[8-chloro-5-(2-hydroxy-2-pyridin-4-yl-ethyl)-1,3,4,5-tetrahydro-pyrido[4,3-b]indol-2-yl]-2-methyl-butan-2-ol]
Percentage inhibition of ligand binding, Adrenergic α2B [1, 11]: 28% | Percentage inhibition of ligand binding, Adrenergic α2A [2, 12]: −6% | inhibition at 0.1 µM [3, 6]: 16%

CN1CCc2c(c3cccc(Cl)c3n2CC(O)c2ccncc2)C1 (single isomer, unassigned) [45b]
Percentage inhibition of ligand binding, Adrenergic α2B [1, 11]: 96% | Percentage inhibition of ligand binding, Adrenergic α2A [2, 12]: 16% | Percentage inhibition of ligand binding, Adrenergic α1B [3, 13]: 24%

Cc1cnc2c(c1)c1c(n2CCc2ccc(C)nc2)CCN2CCCC12 (single isomer, unassigned) [74b, 10-methyl-7-(2-(6-methylpyridin-3-yl)ethyl)-2,3,5,6,7,11c-hexahydro-1H-pyrido[3′,2′:4,5]pyrrolo[2,3-g]indolizine]
inhibition at 0.03 µM [1, 4]: 27% | Percentage inhibition of ligand binding, Adrenergic α2A [2, 12]: 14% | Percentage inhibition of ligand binding, Adrenergic α1B [3, 13]: 28%

CNC(Cn1c2c(c3cc(C)ccc31)CN(C)CC2)c1ccc(F)cc1 (single isomer, unassigned) [II-12b, 2-(2,8-dimethyl-3,4-dihydro-1H-pyrido[4,3-b]indol-5(2H)-yl)-1-(4-fluorophenyl)-N-methyl ethanamine]
Percentage inhibition of ligand binding, Adrenergic α2B ([1]; 0.03 μM compound): 65% | Percentage inhibition of ligand binding, Adrenergic α2A ([2]; 0.1 μM compound): 15% | Percentage inhibition of ligand binding, Adrenergic α1B ([3]; 0.1 μM compound): 11%

Cc1ccc2c(c1)c1c(n2CC(OC(=O)c2ccncc2)c2ccncc2)CCN(C)C1 (single isomer, unassigned) [147b, isonicotinic acid 2-(2,8-dimethyl-1,2,3,4-tetrahydro-pyrido[4,3-b]indol-5-yl)-1-pyridin-4-yl-ethylester]
Percentage inhibition of ligand binding, Adrenergic α2B (0.03 μM) [1, 14]: 93% | Percentage inhibition of ligand binding, Adrenergic α2A (0.1 μM) [2, 15]: 36% | Percentage inhibition of ligand binding, Adrenergic α1B (0.1 μM) [3, 10]: 82%

Cc1ccc2c(c1)c1c(n2CC(O)c2ccc(C(N)=O)cc2)CCN(C)C1 (single isomer, unassigned) [139b, 4-[2-(2,8-dimethyl-1,2,3,4-tetrahydro-pyrido[4,3-b]indol-5-yl)-1-hydroxy-ethyl]-benzamide]
Percentage inhibition of ligand binding, Adrenergic α2B (0.03 μM) [1, 14]: 59% | Percentage inhibition of ligand binding, Adrenergic α2A (0.1 μM) [2, 15]: 6% | Percentage inhibition of ligand binding, Adrenergic α1B (0.1 μM) [3, 10]: 11%

Cc1cnc2c(c1)c1c(n2CCc2ccncc2)CCN2CCCC12 (single isomer, unassigned) [II-244b, 9-methyl-6-(2-pyridin-4-yl-ethyl)-2,3,4,5,6,10c-hexahydro-1H-3a,6,7-triaza-cyclopenta[c]fluorene]
Percentage inhibition of ligand binding, Adrenergic α2B (0.03 μM) [1, 14]: 16% | Percentage inhibition of ligand binding, Adrenergic α2A (0.1 μM) [2, 15]: 2% | Percentage inhibition of ligand binding, Adrenergic α1B (0.1 μM) [3, 10]: 12%

CN1CCc2c(c3cccc(Br)c3n2CC(O)c2ccncc2)C1 (single isomer, unassigned) [48a]
Percentage inhibition of ligand binding, Adrenergic α2B [1, 11]: 58% | inhibition at 0.1 µM [2, 5]: 12% | inhibition at 0.1 µM [3, 6]: 16%

Cc1ccc2c(c1)c1c(n2CC(O)c2ccc(F)cc2F)CCN(C)CC1 (single isomer, unassigned) [172b]
Percentage inhibition of ligand binding, Adrenergic α2B (0.03 μM) [1, 14]: 93% | Percentage inhibition of ligand binding, Adrenergic α2A (0.1 μM) [2, 15]: 46% | Percentage inhibition of ligand binding, Adrenergic α1B (0.1 μM) [3, 10]: 92%

Cc1cc2c3c(n(CC(C)(O)c4cccnc4)c2cn1)CCN1CCCC31 (stereo not shown) [II-5]
inhibition at 0.03 µM [1, 16]: 4% | inhibition at 0.1 µM [2, 17]: 9% | inhibition at 0.1 µM [3, 18]: 2%

CN1CCc2c(c3cc(C(C)(C)C)ccc3n2CC(O)c2ccncc2)C1 (stereo not shown) [II-68, 2-(8-tert-butyl-2-methyl-1,2,3,4-tetrahydro-pyrido[4,3-b]indol-5-yl)-1-pyridin-4-yl-ethanol]
inhibition at 0.03 µM [1, 16]: 17% | inhibition at 0.1 µM [2, 17]: 5% | inhibition at 0.1 µM [3, 18]: 12%

Cc1ccc2c(c1)c1c(n2CC(O)c2ccncc2)CCN2CCCCC12 (single isomer, unassigned) [47c]
Percentage inhibition of ligand binding, Adrenergic α2B [1, 11]: 53% | Percentage inhibition of ligand binding, Adrenergic α2A [2, 12]: 4% | Percentage inhibition of ligand binding, Adrenergic α1B [3, 13]: 6%
